Results reported in ChEMBL document CHEMBL1127062 (J Med Chem, 1993).

Target: Ryanodine receptor 1 (Oryctolagus cuniculus, UniProt P11716)
Experiment: Affinity for sarcoplasmic reticular calcium release channel (SR CRC) of rabbit skeletal membrane vesicles

Chain of Ryanodine receptor 1 (P11716 whole entry): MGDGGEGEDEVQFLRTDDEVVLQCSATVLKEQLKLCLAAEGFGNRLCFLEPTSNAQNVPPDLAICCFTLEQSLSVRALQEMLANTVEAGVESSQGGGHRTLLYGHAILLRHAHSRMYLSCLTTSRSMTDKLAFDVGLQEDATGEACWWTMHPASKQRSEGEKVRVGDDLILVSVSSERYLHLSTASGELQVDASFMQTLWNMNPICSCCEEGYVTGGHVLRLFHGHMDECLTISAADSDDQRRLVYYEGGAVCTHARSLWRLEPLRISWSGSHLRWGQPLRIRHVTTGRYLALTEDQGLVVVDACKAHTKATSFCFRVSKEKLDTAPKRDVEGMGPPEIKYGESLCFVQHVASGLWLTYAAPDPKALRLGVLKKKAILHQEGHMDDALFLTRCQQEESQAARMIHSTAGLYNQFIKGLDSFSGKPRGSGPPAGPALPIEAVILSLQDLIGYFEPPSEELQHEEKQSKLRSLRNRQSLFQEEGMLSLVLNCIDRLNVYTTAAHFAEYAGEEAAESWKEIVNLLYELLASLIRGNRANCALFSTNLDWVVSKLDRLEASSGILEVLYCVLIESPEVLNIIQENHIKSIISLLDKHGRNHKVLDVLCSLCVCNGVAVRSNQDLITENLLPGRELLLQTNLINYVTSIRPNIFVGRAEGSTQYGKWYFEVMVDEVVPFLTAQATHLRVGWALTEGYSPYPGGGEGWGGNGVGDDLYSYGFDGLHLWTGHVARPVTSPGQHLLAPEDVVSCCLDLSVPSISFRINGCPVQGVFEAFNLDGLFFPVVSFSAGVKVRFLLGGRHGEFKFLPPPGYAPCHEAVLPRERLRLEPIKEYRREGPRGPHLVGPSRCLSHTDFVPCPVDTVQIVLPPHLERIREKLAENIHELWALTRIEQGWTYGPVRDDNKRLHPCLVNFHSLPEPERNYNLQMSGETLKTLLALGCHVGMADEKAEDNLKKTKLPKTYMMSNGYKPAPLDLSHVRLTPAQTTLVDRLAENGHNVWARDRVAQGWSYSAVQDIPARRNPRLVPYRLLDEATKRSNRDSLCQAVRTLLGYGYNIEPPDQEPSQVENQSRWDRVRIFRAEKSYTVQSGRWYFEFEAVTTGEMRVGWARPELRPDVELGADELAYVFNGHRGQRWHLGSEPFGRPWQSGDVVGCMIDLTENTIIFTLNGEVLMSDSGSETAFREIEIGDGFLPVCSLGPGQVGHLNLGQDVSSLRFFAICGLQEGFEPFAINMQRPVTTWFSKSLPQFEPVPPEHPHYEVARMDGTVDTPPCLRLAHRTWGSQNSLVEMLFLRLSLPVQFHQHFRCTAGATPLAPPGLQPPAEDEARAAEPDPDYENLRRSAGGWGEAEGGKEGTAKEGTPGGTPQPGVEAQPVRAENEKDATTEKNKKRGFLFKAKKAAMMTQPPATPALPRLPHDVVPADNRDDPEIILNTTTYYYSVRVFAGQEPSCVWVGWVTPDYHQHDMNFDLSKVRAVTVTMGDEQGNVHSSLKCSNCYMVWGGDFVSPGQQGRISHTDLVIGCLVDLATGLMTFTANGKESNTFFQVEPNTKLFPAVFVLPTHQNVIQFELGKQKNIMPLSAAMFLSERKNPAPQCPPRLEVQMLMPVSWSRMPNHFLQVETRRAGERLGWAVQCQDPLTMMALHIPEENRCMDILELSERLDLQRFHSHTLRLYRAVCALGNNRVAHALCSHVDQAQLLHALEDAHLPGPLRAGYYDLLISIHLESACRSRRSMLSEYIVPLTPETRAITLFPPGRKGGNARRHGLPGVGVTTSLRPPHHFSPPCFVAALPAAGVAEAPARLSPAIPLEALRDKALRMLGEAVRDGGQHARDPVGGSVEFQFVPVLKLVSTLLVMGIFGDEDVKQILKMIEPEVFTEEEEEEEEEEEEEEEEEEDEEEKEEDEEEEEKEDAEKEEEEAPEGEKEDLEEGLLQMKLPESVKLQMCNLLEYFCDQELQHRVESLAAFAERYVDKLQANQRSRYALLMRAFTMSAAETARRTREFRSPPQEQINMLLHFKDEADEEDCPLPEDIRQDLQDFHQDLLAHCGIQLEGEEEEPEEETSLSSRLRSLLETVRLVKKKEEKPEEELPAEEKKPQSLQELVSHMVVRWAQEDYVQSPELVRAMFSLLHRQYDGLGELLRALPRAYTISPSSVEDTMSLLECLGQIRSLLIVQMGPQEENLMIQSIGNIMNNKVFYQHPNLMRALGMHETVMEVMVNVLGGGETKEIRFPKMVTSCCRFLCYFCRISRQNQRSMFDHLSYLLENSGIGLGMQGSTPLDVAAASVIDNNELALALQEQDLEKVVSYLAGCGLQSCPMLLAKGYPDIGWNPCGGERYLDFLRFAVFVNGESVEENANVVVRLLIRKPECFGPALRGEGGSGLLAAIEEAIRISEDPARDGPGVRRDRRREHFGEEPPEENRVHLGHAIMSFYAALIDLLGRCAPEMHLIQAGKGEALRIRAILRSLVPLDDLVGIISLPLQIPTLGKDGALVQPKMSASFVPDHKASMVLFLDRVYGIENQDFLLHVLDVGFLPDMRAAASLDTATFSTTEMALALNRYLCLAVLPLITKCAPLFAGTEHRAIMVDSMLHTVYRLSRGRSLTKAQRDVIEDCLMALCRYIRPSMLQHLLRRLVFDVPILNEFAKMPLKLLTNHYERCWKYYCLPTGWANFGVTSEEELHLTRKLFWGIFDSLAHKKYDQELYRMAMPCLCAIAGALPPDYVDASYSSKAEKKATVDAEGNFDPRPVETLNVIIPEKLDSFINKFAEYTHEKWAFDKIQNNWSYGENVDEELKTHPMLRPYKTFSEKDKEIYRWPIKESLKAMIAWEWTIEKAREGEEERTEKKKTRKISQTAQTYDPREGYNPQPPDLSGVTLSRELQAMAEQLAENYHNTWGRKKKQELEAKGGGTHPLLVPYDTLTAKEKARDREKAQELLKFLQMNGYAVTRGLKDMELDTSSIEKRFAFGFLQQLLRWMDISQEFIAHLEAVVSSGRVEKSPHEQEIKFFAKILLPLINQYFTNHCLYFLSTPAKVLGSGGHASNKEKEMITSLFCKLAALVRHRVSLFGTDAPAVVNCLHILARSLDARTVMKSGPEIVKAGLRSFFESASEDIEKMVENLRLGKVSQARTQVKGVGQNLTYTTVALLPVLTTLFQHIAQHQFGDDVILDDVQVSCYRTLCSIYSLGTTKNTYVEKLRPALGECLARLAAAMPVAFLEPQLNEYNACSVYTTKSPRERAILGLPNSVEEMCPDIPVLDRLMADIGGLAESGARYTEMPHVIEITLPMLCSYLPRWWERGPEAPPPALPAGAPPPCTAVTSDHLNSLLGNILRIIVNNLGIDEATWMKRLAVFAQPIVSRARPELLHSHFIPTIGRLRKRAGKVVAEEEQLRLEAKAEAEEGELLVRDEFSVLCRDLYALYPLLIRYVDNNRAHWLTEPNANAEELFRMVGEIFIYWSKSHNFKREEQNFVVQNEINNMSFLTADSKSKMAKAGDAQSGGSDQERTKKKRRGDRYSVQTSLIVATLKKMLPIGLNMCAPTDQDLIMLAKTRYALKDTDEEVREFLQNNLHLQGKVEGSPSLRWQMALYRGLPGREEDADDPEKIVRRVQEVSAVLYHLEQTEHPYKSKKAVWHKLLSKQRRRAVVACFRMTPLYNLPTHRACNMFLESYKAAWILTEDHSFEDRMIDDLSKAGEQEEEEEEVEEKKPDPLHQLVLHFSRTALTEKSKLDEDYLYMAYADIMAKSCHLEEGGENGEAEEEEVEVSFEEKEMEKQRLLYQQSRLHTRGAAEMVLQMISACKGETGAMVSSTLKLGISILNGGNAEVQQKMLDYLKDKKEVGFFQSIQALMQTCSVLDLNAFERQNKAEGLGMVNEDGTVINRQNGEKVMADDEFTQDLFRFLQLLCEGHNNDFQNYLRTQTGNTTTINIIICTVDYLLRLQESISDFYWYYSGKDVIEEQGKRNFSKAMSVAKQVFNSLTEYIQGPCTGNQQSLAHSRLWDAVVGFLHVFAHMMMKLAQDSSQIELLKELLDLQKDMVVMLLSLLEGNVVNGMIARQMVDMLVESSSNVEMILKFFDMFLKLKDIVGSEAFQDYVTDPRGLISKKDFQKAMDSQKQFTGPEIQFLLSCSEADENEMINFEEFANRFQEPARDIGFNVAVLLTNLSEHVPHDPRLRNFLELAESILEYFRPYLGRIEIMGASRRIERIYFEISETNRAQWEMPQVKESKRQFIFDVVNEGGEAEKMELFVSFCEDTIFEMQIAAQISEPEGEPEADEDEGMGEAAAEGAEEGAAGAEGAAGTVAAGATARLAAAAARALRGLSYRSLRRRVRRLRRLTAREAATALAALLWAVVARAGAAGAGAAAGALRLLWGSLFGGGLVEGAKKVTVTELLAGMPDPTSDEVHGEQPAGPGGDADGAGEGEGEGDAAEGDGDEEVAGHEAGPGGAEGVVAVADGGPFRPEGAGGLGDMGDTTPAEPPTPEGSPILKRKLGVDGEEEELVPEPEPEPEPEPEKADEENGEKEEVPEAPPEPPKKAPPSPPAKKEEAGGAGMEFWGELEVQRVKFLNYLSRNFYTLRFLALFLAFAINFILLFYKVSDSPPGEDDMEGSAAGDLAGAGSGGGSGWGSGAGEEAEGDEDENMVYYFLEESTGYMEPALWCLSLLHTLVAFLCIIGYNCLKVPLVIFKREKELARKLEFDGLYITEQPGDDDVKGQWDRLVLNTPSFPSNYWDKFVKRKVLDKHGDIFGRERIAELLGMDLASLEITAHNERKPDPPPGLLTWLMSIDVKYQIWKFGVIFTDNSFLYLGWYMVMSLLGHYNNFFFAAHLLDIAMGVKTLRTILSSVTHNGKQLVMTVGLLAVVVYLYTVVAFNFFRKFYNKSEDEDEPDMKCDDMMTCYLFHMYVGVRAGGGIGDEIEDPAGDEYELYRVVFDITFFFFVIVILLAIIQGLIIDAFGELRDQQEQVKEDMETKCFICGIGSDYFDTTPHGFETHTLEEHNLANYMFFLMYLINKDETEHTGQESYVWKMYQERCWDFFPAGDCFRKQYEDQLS

| Compound | IC50 [nM] |
| --- | --- |
| C=C1CCC2(O)C3(OC4(O)C[C@]2(C)C2(O)[C@H](OC(=O)c5ccc[nH]5)C(O)(C(C)C)C4(C)C32O)[C@@H]1O (stereo in doubt) [ANHYDRORYANIDINE] | > 10000 |
| CC1CCC2(O)C3(OC4(O)C[C@]2(C)C2(O)[C@H](OC(=O)c5ccc[nH]5)C(O)(C(C)C)C4(C)C32O)[C@@H]1OC(=O)CNC(=O)OCc1ccccc1 (some centres not stated) | 4.8 |
| CC1CCC2(O)C3(OC4(O)C[C@]2(C)C2(O)[C@H](OC(=O)c5ccc[nH]5)C(O)(C(C)C)C4(C)C32O)[C@@H]1OC(=O)CNC(=N)N (some centres not stated) | 1.8 |
| CC1CCC2(O)C3(OC4(O)C[C@]2(C)C2(O)[C@H](OC(=O)c5ccc[nH]5)C(O)(C(C)C)C4(C)C32O)[C@@H]1OC(=O)CN (some centres not stated) [GLYCYLRYANODINE] | 1.8 |
| CC1CCC2(O)C3(OC4(O)C[C@]2(C)C2(O)[C@H](OC(=O)c5ccc[nH]5)C(O)(C(C)C)C4(C)C32O)[C@@H]1OC(=O)CCN=C(N)N (some centres not stated) | 1.1 |
| CC1CCC2(O)C3(OC4(O)C[C@]2(C)C2(O)[C@H](OC(=O)c5ccc[nH]5)C(O)(C(C)C)C4(C)C32O)[C@@H]1OC(=O)CNC(=NC(=O)OCc1ccccc1)NC(=O)OCc1ccccc1 (some centres not stated) | 136 |
| CNC(=O)CCC(=O)O[C@@H]1C(C)CCC2(O)C13OC1(O)C[C@]2(C)C2(O)[C@H](OC(=O)c4ccc[nH]4)C(O)(C(C)C)C1(C)C32O (some centres not stated) | 49.4 |
| CC1CCC2(O)C3(OC4(O)C[C@]2(C)C2(O)[C@H](OC(=O)c5ccc[nH]5)C(O)(C(C)C)C4(C)C32O)[C@@H]1OC(=O)CCN=C(NC(=O)OCc1ccccc1)NC(=O)OCc1ccccc1 (some centres not stated) | 43.6 |
| CC1CCC2(O)C3(OC4(O)C[C@]2(C)C2(O)[C@H](OC(=O)c5ccc[nH]5)C(O)(C(C)C)C4(C)C32O)[C@@H]1OC(=O)CCC(=O)O (some centres not stated) | > 1000 |
| CC1CCC2(O)C3(OC4(O)C[C@]2(C)C2(O)[C@H](OC(=O)c5ccc[nH]5)C(O)(C(C)C)C4(C)C32O)[C@@H]1OC(=O)CCN (some centres not stated) | 2.6 |
| C=C1CCC2(O)C3(OC4(O)C[C@]2(C)C2(O)[C@H](OC(=O)c5ccc[nH]5)C(O)(C(C)C)C4(C)C32O)[C@@H]1O (stereo in doubt; 2) [ANHYDRORYANIDINE] | 8.9 |
| CC1CCC2(O)C3(OC4(O)C[C@]2(C)C2(O)[C@H](OC(=O)c5ccc[nH]5)C(O)(C(C)C)C4(C)C32O)[C@@H]1OC(=O)CCNC(=O)OCc1ccccc1 (some centres not stated) | 5.9 |
